Assay results reported in US11702442B2, “Cyclic dinucleotide compounds as sting agonists” (The Regents of the University of California, priority 2019, dated 2023).
Entries after “also recorded” stand apart in the source; their conditions may differ.

How the values were obtained:
STING pathway = assay: IFN-β mRNA production in RAW 264.7 cells by RT-qPCR; format: cell-based, murine; details: for IFN-β mRNA production / IFN response: RAW 264.7, 1, 5, 10 μM CDN, 2, 4, 6 h; for time post transfection of highest IFN-β mRNA production: RAW 264.7, 1, 5 and 10 μM CDN, 2, 4 and 6 h tested; for order of IFN-β induction: RAW 264.7, RT-qPCR, FIG. 3
Description: FIGS. 3A-3C provide IFN data. […] RAW 264.7 cells were transfected with 1, 5, 10 μM of c-di-GMP, c-di-^tzGMP, c-G^thGMP, c-di-G^thGMP and c-G^tzGMP, and incubated for 2, 4, 6 h before being lysed by TRIzol. RNA purification and RT-qPCR were conducted following the protocol described in the Experimental Section. FIG. 3B show IFN response after 2, 4, 6 h of incubation with 5 μM of CDNs. […] Two independent assays were performed in triplicates (n=2). Error bars indicate SD. See Yi et al, Tuning the Innante Immune Response to Cyclic Dinucleotides by Using Atomic Mutagenesis, ChemBioChem, Volume 21 (2020).
As most synthetic c-di-GMP analogues activated IRF3, the inventors analyzed their dose and time dependency for inducing IFN-β mRNA production by using RT-qPCR. RAW 264.7 cells were transfected with 1, 5 and 10 μM of CDNs as described above and incubated for 2, 4 and 6 h. Total RNA was isolated and used for RT-qPCR. As shown in FIGS. 3A-3B, c-di-GMP induced the most IFN-β mRNA production 4 h post transfection, whereas the highest response was observed after 2 h for c-di-tzGMP, c-GthGMP, and c-GtzGMP.
RT-qPCR. RAW 264.7 cells were plated on 48-well plates (2.5×10^5 cells per well) and transfected with CDN using the same method as above after 48 h of incubation at 37° C. Cells were then incubate with regular growth medium for designated time, and total RNA was isolated with TRIzol® reagent and purified with RNeasy mini kit (Qiagen) following the manufacturer's protocol. Following elution, RNA yields were evaluated using a Nanodrop spectrophotometer (Nanodrop technologies). RNA samples were converted to cDNA with SuperScript III First-Strand Synthesis kit (Invitrogen) with random hexamers following the manufacturer's protocol. Quantitative PCR (SYBR Green) analysis was performed in duplicates on an Applied Biosystems 7300 Real-time PCR system (Invitrogen). Transcription level of IFN-β gene of each sample was normalized to housekeeping gene TBP and then to untreated samples (UT) using the delta-delta CT method.

DncV = DncV (Vibrio cholerae serotype O1, UniProt Q9KVG7); assay: DncV-mediated CDN synthesis kinetics monitored by HPLC; format: biochemical; design: made in house; host or cells: Escherichia coli BL21(DE3); details: for k2/k3: product formation vs intermediate degradation; for k2 / k3 / k1: 500 μM NTP, DncV, 37° C., mean±SD; for k2: cyclization of intermediate to product; for k3: degradation of intermediate; for k1: first phosphodiester bond formation; for k1 derived from HPLC analysis: as quoted for comparison with kapp
Text: DncV generates CDNs through a series of sequential reactions, which are thought to involve a release-and-rebound process of the intermediate. [7b,17] After the first 3′,5′-phosphodiester bond formation, the linear dinucleotide pppNpN is released and oppositely rebound to the enzyme, after which the second 3′,5′-phosphodiester linkage is made. [7b,16b,18] To ultimately apply and interpret real-time fluorescence measurements, a better understanding of the enzymatic conversion of GTP and its analogues into the corresponding CDNs is therefore required. The reaction time course was consequently analyzed, paying particular attention to the accumulation and consumption of intermediates. DncV was incubated with GTP, tzGTP and thGTP, and the reactions containing each of the corresponding substrates were quenched with calf intestinal alkaline phosphatase (CIAP) at designated time points. The relative concentrations of the starting material (S), uncyclized intermediate (I) and product (P) were then monitored by HPLC. […] Taking into account the unique release-and-rebound process of the uncyclized dinucleotide intermediate, [16b,20] the kinetics of the DncV-mediated CDN syntheses was therefore analyzed according to the model in Scheme 1a and the differential Equations (1)-(4), in which S represents the starting NTP, I1 and I2 respectively represent intermediates pppNpN and degraded intermediate pNpN (I=I1+I2), and P represents the product CDN. Papp (apparent product) stands for the sum of all the dinucleotide species, including linear ones and cyclized products.
Differential Equations (1)-(4) d[S]/dt=−2k1[S]^2 (1) d[I1]/dt=k1[S]^2−[…] (2) d[P]/dt=k2[I3] (3) d[I2]/dt=k3[I1] (4)
[…] of the mixture was subjected to HPLC analysis after filtration. The reaction mixture was separated by Sepax Bio C-18 column (250×10 mm, 5 pmparticle size) with a gradient of 0.5%-25% of 10 mM TEAA, pH7 in Me0H in 20 min at 25° C. on an Agilent 1200 series HPLC system (Agilent Technologies).
Data Analysis and curve fitting. […] The relative concentrations were plotted against time.

DncV, sequence (Q9KVG7 whole entry): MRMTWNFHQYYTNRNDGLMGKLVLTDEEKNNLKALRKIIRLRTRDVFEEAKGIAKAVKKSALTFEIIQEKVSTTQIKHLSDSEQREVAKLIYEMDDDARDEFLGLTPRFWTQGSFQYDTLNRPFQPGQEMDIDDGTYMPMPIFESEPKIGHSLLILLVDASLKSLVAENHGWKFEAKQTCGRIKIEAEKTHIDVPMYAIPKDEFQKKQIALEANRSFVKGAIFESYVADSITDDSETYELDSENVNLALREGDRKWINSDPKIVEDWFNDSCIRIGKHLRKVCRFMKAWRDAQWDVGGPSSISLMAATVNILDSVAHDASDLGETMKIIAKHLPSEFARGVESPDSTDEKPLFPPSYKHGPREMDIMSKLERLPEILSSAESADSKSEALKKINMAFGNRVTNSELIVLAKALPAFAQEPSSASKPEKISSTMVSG

| Compound | IFN-β mRNA production relative to c-di-GMP (STING pathway; RAW 264.7, 5 μM CDN, 2 h incubation) | IFN-β mRNA production / IFN response (STING pathway) | time post transfection of highest IFN-β mRNA production (STING pathway) [h] | order of IFN-β induction (STING pathway) | k2/k3 (DncV) | k2 (DncV) | k2 (DncV; listed as c-di-thGMP) | k3 (DncV) | k3 (DncV; listed as c-di-thGMP) | k1 (DncV) | k1 (DncV; listed as c-di-thGMP) | k1 derived from HPLC analysis (DncV) [M⁻¹ s⁻¹] | k2 (DncV; listed as c-di-tzGMP) | k3 (DncV; listed as c-di-tzGMP) | k1 (DncV; listed as c-di-tzGMP) |
| --- | --- | --- | --- | --- | --- | --- | --- | --- | --- | --- | --- | --- | --- | --- | --- |
| Nc1nc2c([C@@H]3O[C@@H]4COP(=O)(O)O[C@H]5[C@@H](O)[C@H](n6cnc7c(=O)[nH]c(N)nc76)O[C@@H]5COP(=O)(O)O[C@H]4[C@H]3O)scc2c(=O)[nH]1 [c-G^thGMP] | tenfold higher | highest potency; also recorded: earlier and stronger maximum IFN-β response compared to the native c-di-GMP; also recorded: strongest effect on IFN-β induction of all analogues tested; also recorded: faster and greater innate immune response relative to the native signal c-di-GMP | 2 | c-GthGMP>c-di-tzGMP>c-GtzGMP>c-di-GMP>c-di-thGMP | – | – | – | – | – | – | – | – | – | – | – |
| Nc1nc2c(ncn2[C@@H]2O[C@@H]3COP(=O)(O)O[C@H]4[C@@H](O)[C@H](n5cnc6c(=O)[nH]c(N)nc65)O[C@@H]4COP(=O)(O)O[C@H]3[C@H]2O)c(=O)[nH]1 [c-di-GMP, reference compound] | – | – | 4 | c-GthGMP>c-di-tzGMP>c-GtzGMP>c-di-GMP>c-di-thGMP | 116 | – | – | – | – | – | – | – | – | – | – |
| Nc1nc2c([C@@H]3O[C@@H]4COP(=O)(O)O[C@H]5[C@@H](O)[C@H](c6scc7c(=O)[nH]c(N)nc67)O[C@@H]5COP(=O)(O)O[C@H]4[C@H]3O)scc2c(=O)[nH]1 [c-di-^thGMP] | – | minimal; also recorded: essentially inactive | – | c-GthGMP>c-di-tzGMP>c-GtzGMP>c-di-GMP>c-di-thGMP | 8.0 | (2.32 ± 0.05) × 10^−4 s^−1 | (2.32±0.05)×10^−3 s^−1 | (2.91 ± 0.01) × 10^−5 s^−1 | (2.91±0.01)×10^−5 s^−1 | (3.08 ± 0.03) × 10^−7 μM^−1s^−1 | (3.08±0.03)×10^−7 μM^−1s^−1 | 0.31 ± 0.03 | – | – | – |
| Nc1nc2c([C@@H]3O[C@@H]4COP(=O)(O)O[C@H]5[C@@H](O)[C@H](c6snc7c(=O)[nH]c(N)nc67)O[C@@H]5COP(=O)(O)O[C@H]4[C@H]3O)snc2c(=O)[nH]1 [c-di-^tzGMP] | – | earlier and stronger maximum IFN-β response compared to the native c-di-GMP | 2 | c-GthGMP>c-di-tzGMP>c-GtzGMP>c-di-GMP>c-di-thGMP | 26 | (3.4 ± 0.2) × 10^−3 s^−1 | – | (1.3 ± 0.1) × 10^−4 s^−1 | – | (1.26 ± 0.07) × 10^−6 μM^−1s^−1 | – | 1.26 ± 0.07 | (3.4±0.2)×10^−3 s^−1 | (1.3±0.1)×10^−4 s^−1 | (1.26±0.07)×10^−6 μM^−1s^−1 |
